Measured values reported in patent publication US8435556B2, “Transdermal delivery of cannabidiol” (Alltranz, LLC, priority 2005, dated 2013).
Values joined by “and” are separate entries in the source; they are usually repeats but may differ in a detail not shown here. Equal entries are not always repeated.

Assays:
[1] = full-thickness human skin, Touitou et al. 1988; cited from earlier work
[2] = plasma THC and CBD concentrations after separate and co-administration
[3] = in vitro permeation of Δ^9-tetrahydrocannabinol across human skin with various receiver solutions
[4] = human skin permeation of cannabidiol with permeation enhancers; format: in vitro ADME; settings: enhancer 6% v/v
Description: The aim of the experiment was to evaluate the effect of permeation enhancers on human skin permeation of cannabidiol (CBD). The following permeation enhancers were used in the study: • LAUROGLYCOL 90-(Propylene glycol monolaurate 90%)-LG-90 • TRANSCUTOL HP (Purified diethylene glycol monoethyl ether)-TC-HP • LABRAFIL® M 1944 CS (Oleoyl Macrogolglycerides)-LF • LABRASOL® (Caprylocaproyl Macrogolglycerides)-LB • SUPER REFINED® NOVOL NF (Oleyl Alcohol)-OA
A high-pressure liquid chromatography (HPLC) assay was used for the analysis of CBD in the samples. The HPLC system consisted of a Waters 717 plus Autosampler, Waters 1525 Binary HPLC Pump and Waters 2487 Dual λ Absorbance Detector with Waters Breeze software. A Brownlee C-18 reversed-phase Spheri-5 μm column (220×4.6 mm) with a C-18 reversed phase 7 μm guard column (15×3.2 mm) was used with the UV detector set at a wavelength of 215 nm. The mobile phase was comprised of acetonitrile: 25 mM phosphate buffer with 0.1% triethylamine pH 3.0 (80:20). The flow rate of the mobile phase was […] and 100 μL of the sample was injected onto the column.
Human skin harvested during abdominoplasty was used for the diffusion studies. Skin sections were obtained by using a Padgett Instruments® dermatome set to 250 microns and stored at −20° C. […] Trans-epidermal water loss was measured (Evaporimeter EP1™, ServoMed, Sweden) after securing the skin in the cells. Pieces of skin with readings below 10 g/m^2/h were used for the diffusion studies. […] An excess quantity of CBD was added to the donor vehicle (propylene glycol:Hanks' buffer (80:20)) solution with and without permeation enhancers at 6% v/v, sonicated for 10 min, and then applied onto the skin. Excess quantity of the drug was used in the donor compartment throughout the diffusion experiment in order to maintain maximum and constant chemical potential of the drug in the donor vehicle. […]
Drug disposition in the skin samples was measured at the completion of the 48 h experiment. […] Samples were analyzed by HPLC to determine CBD content in […] (pmol) of drug per gram of wet tissue weight. […]

[5] = skin permeation study of WIN 55,212-2 in flow-through diffusion cells; format: in vitro ADME, human
Description: The skin permeation study was carried out using skin excised during abdominal reduction surgery. The skin sample was harvested from the abdomen using a Padgett dermatome set to 250 μm; the skin sample was frozen at −20° C. for one week. The frozen skin sample was thawed and used at the 250 μm split-thickness for the diffusion study. Three PermeGear In-Line Flow Cells were used for the skin permeation study. The receiver fluid was 6% BRIJ® 98 (Polyoxyethylene 20 Oleyl Ether), in order to increase the partitioning of this extremely lipophilic drug into the receiver. The receiver fluid was pumped through the diffusion cells at a rate of one milliliter per hour. The receiver samples were refrigerated until HPLC analysis. The temperature of the diffusion cells was maintained at 32° C. with a circulating water bath. The diffusion experiment was initiated by charging the donor compartment with 0.25 mL of WIN 55,212-2 Mesylate in propylene glycol (50 mg/mL).
Samples were analyzed using a HPLC system which consisted of a Waters 717 Autosampler, 501 Pumps, and a 484 Tunable UV Absorbance Detector with Millennium Chromatography Software. A reversed phase Beckman 5 μm particle 4.6 mm×25 cm C-18 column was used with the UV detector set at a wavelength of 215 nm. The mobile phase consisted of 0.05 M monobasic potassium phosphate:acetonitrile (300 mL:700 mL) at a flow rate of 2 mL/min.
Skin permeation data were plotted as the cumulative amount of drug collected in the receiver compartment as a function of time. The lag times and steady-state fluxes were calculated using the terminal, linear portions of these curves. The slopes (Js) through these curves were determined using linear regression analysis. In all cases, the coefficients of determination for the lines were >0.99.
Lag times were determined by extrapolating the steady-state curves to the X-axis. The permeability coefficient was calculated from Fick's law of diffusion: […]

CCCCCc1cc(O)c2c(c1)OC(C)(C)[C@@H]1CC=C(C)C[C@@H]21 [Δ^8-THC, Δ^8-tetrahydrocannabinol]
flux rate [1]: 3.5 μg/cm^2/hr | permeability coefficient [1]: 0.036 ×10⁻⁶ cm/s

CCCCCc1cc(O)c2c(c1)OC(C)(C)[C@@H]1CCC(C)=C[C@@H]21 [Δ^9-tetrahydrocannabinol]
THC plasma concentration, coadministered with cannabidiol vs alone ([2]; FIG. 11): higher both initially and over time when coadministered | permeability difference of tape stripped skin relative to intact skin ([3]; 6% BRIJ 98 receiver solution): six fold | permeability enhancement with 6% BSA relative to 4% BSA ([3]; four subjects, except subject 3): 20-50% | mean lag time ([3]; intact skin): 18.0 ± 3.4 h | permeability in presence of BRIJ 98 solution relative to BSA solution ([3]; receiver BRIJ 98 (6%) vs BSA (4%), five subjects, except subject 4): 2-5 fold | mean lag time ([3]; stripped skin): 7.8 ± 3.9 h | permeability with 6% BRIJ 98 vs 0.5% BRIJ 98 receiver solution ([3]; three subjects, differences not statistically significant): similar | permeability of tape stripped skin relative to intact skin ([3]; various receiver solutions): 2-3 times

C=C(C)C1CCC(C)=CC1c1c(O)cc(CCCCC)cc1O (centres unmarked) [CBD, 2-[3-methyl-6-(1-methylethenyl)-2-cyclohexen-1-yl]-5-pentyl-1,3-benzenediol]
cannabidiol plasma concentration, coadministered with THC vs alone ([2]; FIG. 12): higher both initially and over time when coadministered | Cumulative amount permeated at 48 h ([4]; 48 h): 193.21 ± 22.77 nmol and 338.11 ± 73.09 nmol | Lag Time ([4]; donor propylene glycol:Hanks' buffer (80:20)): 14.19 ± 1.59 h and 9.43 ± 2.47 h | Flux ([4]; steady state, donor propylene glycol:Hanks' buffer (80:20) with excess CBD, receiver with 40% PEG 400, 32° C.): 9.16 ± 1.41 nmol/cm^2/h

Cc1c(C(=O)c2cccc3ccccc23)c2cccc3c2n1[C@H](CN1CCOCC1)CO3 [WIN 55,212-2, (R)-(+)-[2,3-dihydro-5-methyl-3-(4-morpholinylmethyl)-pyrrolo[1,2,3-de]-1,4-benzoxazin-6-yl]-1-naphthalenyl-methanone]
diffusion lag time ([5]; 250 μm split-thickness skin, donor 50 mg/mL in propylene glycol, receiver 6% BRIJ 98, 32° C., 48 h): 24 h | drug depletion from the donor compartment ([5]; 48 h, donor not saturated): < 1% | mean flux ([5]; steady state, donor 50 mg/mL in propylene glycol, receiver 6% BRIJ 98, n=3): 2.6 μg/cm^2/h
